# Assay results: patent US7989464B2, “mGluR1 antagonists as therapeutic agents” (Schering Corporation, priority 2004, dated 2011)
# Target: T1, hmGluR1 receptor (Homo sapiens, UniProt Q13255)
# T1 construct: expressed in transfected cells
# Test: IC50 determination: intracellular calcium mobilization (FLIPR) upon Quisqualate stimulation in CHO cells stably expressing hmGluR1
# Format: cell-based
# Conditions: against Quisqualate 1 μM (EC80), FLIPR calcium mobilization, read-out: IC50 Class
# How it was run: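 CHO cells stably expressing hmGluR1 were kept overnight in DMEM high glucose with GPT and 1 mM pyruvate, then loaded 2 h with Calcium 3 dye.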
# T1 sequence (Q13255 19-1194): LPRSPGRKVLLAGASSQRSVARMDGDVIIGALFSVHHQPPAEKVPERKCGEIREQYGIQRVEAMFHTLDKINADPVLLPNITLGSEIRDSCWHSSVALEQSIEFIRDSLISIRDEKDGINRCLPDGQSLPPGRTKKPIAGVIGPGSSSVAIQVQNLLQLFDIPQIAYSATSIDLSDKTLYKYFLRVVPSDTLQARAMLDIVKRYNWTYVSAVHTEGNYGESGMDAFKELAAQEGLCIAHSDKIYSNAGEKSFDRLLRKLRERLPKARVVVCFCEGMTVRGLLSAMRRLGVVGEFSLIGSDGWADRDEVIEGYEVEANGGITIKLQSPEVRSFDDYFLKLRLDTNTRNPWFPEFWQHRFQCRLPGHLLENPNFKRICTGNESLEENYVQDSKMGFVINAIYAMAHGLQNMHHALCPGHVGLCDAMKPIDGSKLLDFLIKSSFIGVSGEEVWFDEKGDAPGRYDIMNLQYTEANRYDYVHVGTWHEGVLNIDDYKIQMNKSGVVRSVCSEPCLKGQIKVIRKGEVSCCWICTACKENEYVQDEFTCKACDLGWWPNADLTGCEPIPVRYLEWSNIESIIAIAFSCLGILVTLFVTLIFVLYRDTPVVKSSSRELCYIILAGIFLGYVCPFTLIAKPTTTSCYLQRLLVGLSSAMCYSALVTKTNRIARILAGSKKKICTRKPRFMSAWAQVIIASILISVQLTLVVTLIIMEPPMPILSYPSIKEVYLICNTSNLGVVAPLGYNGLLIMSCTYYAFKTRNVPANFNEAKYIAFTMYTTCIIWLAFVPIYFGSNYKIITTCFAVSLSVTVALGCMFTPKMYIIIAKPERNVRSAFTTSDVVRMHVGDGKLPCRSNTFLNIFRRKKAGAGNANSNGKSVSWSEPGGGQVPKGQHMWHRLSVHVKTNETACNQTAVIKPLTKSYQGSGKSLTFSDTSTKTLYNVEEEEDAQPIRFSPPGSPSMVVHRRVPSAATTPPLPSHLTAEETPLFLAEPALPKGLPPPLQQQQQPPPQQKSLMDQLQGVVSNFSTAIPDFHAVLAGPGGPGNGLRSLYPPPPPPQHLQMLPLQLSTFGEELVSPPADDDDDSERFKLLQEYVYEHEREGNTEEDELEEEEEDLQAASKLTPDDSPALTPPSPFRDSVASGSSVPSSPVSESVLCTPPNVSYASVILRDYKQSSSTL
row,IC50,Structure (SMILES)
1,150 to 1000 nM,CNc1ccnc2sc3c(=O)n(-c4ccncc4)cnc3c12 [28EF]
2,150 to 1000 nM,CCNc1ccnc2sc3c(=O)n(-c4ccncc4)cnc3c12 [28EG]
3,< 50 nM,COc1c(Br)cnc2sc3c(=O)n(-c4ccc(Cl)cc4)cnc3c12 [28EH]
4,150 to 1000 nM,O=c1c2sc3ncc(Br)c(NC4CC4)c3c2ncn1-c1ccc(Cl)cc1 [28EI]
5,> 1000 nM,CN(C)c1ccnc2sc3c(=O)n(C4CCCC(C(=O)O)C4)cnc3c12 (stereo not drawn) [28EJ]
6,> 1000 nM,CCOC(=O)C1CCCC(n2cnc3c(sc4nccc(OC)c43)c2=O)C1 (stereo not drawn) [28EK]
7,> 1000 nM,Cc1noc2cc(F)c(-n3cnc4c(sc5nccc(N(C)C)c54)c3=O)cc12 [28EL]
8,> 1000 nM,COc1ccccc1CCn1cnc2c(sc3nccc(N(C)C)c32)c1=O [28EM]
9,150 to 1000 nM,CN(C)c1ccnc2sc3c(=O)n(CCc4c(Cl)cccc4Cl)cnc3c12 [28EN]
10,150 to 1000 nM,Cc1ccc(-n2cnc3c(sc4nccc(NC(C)(C)C)c43)c2=O)cc1 [28EO]
11,150 to 1000 nM,CC(C)(C)Nc1ccnc2sc3c(=O)n(-c4ccc(Cl)cc4)cnc3c12 [28EP]
12,150 to 1000 nM,Cc1ccc(-n2cnc3c(sc4nccc(NCc5cccs5)c43)c2=O)cc1 [28EQ]
13,> 1000 nM,Cc1ccc(-n2cnc3c(sc4nccc(NCC(C)(C)C)c43)c2=O)cc1 [28ES]
14,50 to 150 nM,Cc1ccc(-n2cnc3c(sc4nccc(NCC5CCCO5)c43)c2=O)cc1 (stereo not drawn) [28ET]
15,150 to 1000 nM,C#CC(CC)(CC)Nc1ccnc2sc3c(=O)n(-c4ccc(C)cc4)cnc3c12 [28EU]
16,< 50 nM,CSCCNc1ccnc2sc3c(=O)n(-c4ccc(C)cc4)cnc3c12 [28EV]
17,< 50 nM,C=C(C)CNc1ccnc2sc3c(=O)n(-c4ccc(C)cc4)cnc3c12 [28EW]
18,50 to 150 nM,Cc1ccc(-n2cnc3c(sc4nccc(NC(C)(C)CO)c43)c2=O)cc1 [28EX]
19,< 50 nM,C=C(Cl)CNc1ccnc2sc3c(=O)n(-c4ccc(C)cc4)cnc3c12 [28EY]
20,150 to 1000 nM,C#CC(C)Nc1ccnc2sc3c(=O)n(-c4ccc(C)cc4)cnc3c12 (stereo not drawn) [28EZ]
21,150 to 1000 nM,C#CC(C)Nc1ccnc2sc3c(=O)n(-c4ccc(OC)cc4)cnc3c12 (stereo not drawn) [28FA]
22,< 50 nM,C=C(C)CNc1ccnc2sc3c(=O)n(-c4ccc(OC)cc4)cnc3c12 [28FB]
23,< 50 nM,C=C(C)CNc1ccnc2sc3c(=O)n(-c4ccc(Br)cc4)cnc3c12 [28FC]
24,< 50 nM,C=C(C)CNc1ccnc2sc3c(=O)n(-c4ccc(Cl)cc4)cnc3c12 [28FD]

row,IC50,Structure (SMILES)
1,50 to 150 nM,C=C(C)CNc1ccnc2sc3c(=O)n(-c4ccc(OC)c(F)c4)cnc3c12 [28FE]
2,150 to 1000 nM,C=C(C)CNc1ccnc2sc3c(=O)n(-c4ccc5c(c4)OCCO5)cnc3c12 [28FF]
3,150 to 1000 nM,C=C(C)CNc1ccnc2sc3c(=O)n(-c4ccc5c(c4)OCO5)cnc3c12 [28FG]
4,< 50 nM,Nc1ccnc2sc3c(=O)n(-c4ccc(Cl)cc4)cnc3c12 [28FK]
5,150 to 1000 nM,Cc1ccc(-n2cnc3c(sc4nc(NS(C)(=O)=O)cc(N(C)C)c43)c2=O)cc1 [28FL]
6,150 to 1000 nM,Cc1ccc(-n2cnc3c(sc4ncc(Br)c(NCCN)c43)c2=O)cc1 [28FM]
7,< 50 nM,Cc1ccc(-n2cnc3c(sc4ncc(Br)c(NCCO)c43)c2=O)cc1 [28FN]
8,150 to 1000 nM,COc1ccc(-n2cnc3c(sc4nccc(Nc5ccccn5)c43)c2=O)cc1 [28FO]
9,150 to 1000 nM,COc1ccc(Nc2ccnc3sc4c(=O)n(-c5ccc(OC)cc5)cnc4c23)cc1 [28FP]
10,50 to 150 nM,CNc1c(C#N)cnc2sc3c(=O)n(-c4ccc(OC)cc4)cnc3c12 [28FQ]
11,< 50 nM,COc1ccnc2sc3c(=O)n(-c4ccc(Br)cc4)cnc3c12 [28FR]
12,< 50 nM,COc1ccnc2sc3c(=O)n(-c4ccc(Cl)cc4)cnc3c12 [28FS]
13,150 to 1000 nM,COc1ccnc2sc3c(=O)n(-c4ccc(Cl)cc4F)cnc3c12 [28FT]
14,> 1000 nM,COc1ccnc2sc3c(=O)n(-c4ccc(Cl)cc4C)cnc3c12 [28FU]
15,> 1000 nM,COc1ccnc2sc3c(=O)n(-c4ccc(Cl)cc4Cl)cnc3c12 [28FV]
16,150 to 1000 nM,COc1cc(-n2cnc3c(sc4nccc(N(C)C)c43)c2=O)ccc1F [28FW]
17,150 to 1000 nM,COc1ccc(-n2cnc3c(sc4nccc(OC)c43)c2=O)cc1F [28FX]
18,> 1000 nM,COc1ccnc2sc3c(=O)n(-c4ccc5c(c4)OCO5)cnc3c12 [28FY]
19,< 50 nM,CCNc1ccnc2sc3c(=O)n(-c4ccc(OC)c(F)c4)cnc3c12 [28FZ]
20,< 50 nM,O=c1c2sc3nccc(NCCO)c3c2ncn1-c1ccc(Br)cc1 [28GA]
21,< 50 nM,O=c1c2sc3nccc(NCCO)c3c2ncn1-c1ccc(Cl)cc1 [28GB]
22,50 to 150 nM,O=c1c2sc3nccc(NCCO)c3c2ncn1-c1ccc(F)cc1 [28GC]
23,< 50 nM,O=c1c2sc3nccc(NCCCO)c3c2ncn1-c1ccc(Cl)cc1 [28GD]
24,< 50 nM,O=c1c2sc3nccc(NCCCCO)c3c2ncn1-c1ccc(Cl)cc1 [28GE]

row,IC50,Structure (SMILES)
1,< 50 nM,O=c1c2sc3nccc(N4CCCC4)c3c2ncn1-c1ccc(Cl)cc1 [28GF]
2,150 to 1000 nM,NC(=O)CNc1ccnc2sc3c(=O)n(-c4ccc(F)cc4)cnc3c12 [28GG]
3,> 1000 nM,O=c1c2sc3nccc(N4CCCCC4)c3c2ncn1-c1ccc(Cl)cc1 [28GH]
4,> 1000 nM,O=c1c2sc3nccc(N4CCC[C@@H]4CO)c3c2ncn1-c1ccc(Cl)cc1 [28GI]
5,50 to 150 nM,O=c1c2sc3nccc(N4CCC4)c3c2ncn1-c1ccc(Cl)cc1 [28GJ]
6,< 50 nM,COCCNc1ccnc2sc3c(=O)n(-c4ccc(Cl)cc4)cnc3c12 [28GK]
7,< 50 nM,COCCNc1ccnc2sc3c(=O)n(-c4ccc(F)cc4)cnc3c12 [28GL]
8,> 1000 nM,O=c1c2sc3nccc(N4CCC[C@H]4CO)c3c2ncn1-c1ccc(Cl)cc1 [28GM]
9,< 50 nM,COCCCNc1ccnc2sc3c(=O)n(-c4ccc(Cl)cc4)cnc3c12 [28GN]
10,< 50 nM,COCCNc1ccnc2sc3c(=O)n(-c4ccc(Br)cc4)cnc3c12 [28GO]
11,< 50 nM,O=c1c2sc3nccc(NCCCO)c3c2ncn1-c1ccc(F)cc1 [28GP]
12,< 50 nM,O=c1c2sc3nccc(NCCCO)c3c2ncn1-c1ccc(Br)cc1 [28GQ]
13,< 50 nM,COCCCNc1ccnc2sc3c(=O)n(-c4ccc(Br)cc4)cnc3c12 [28GR]
14,< 50 nM,COCCCNc1ccnc2sc3c(=O)n(-c4ccc(F)cc4)cnc3c12 [28GS]
15,150 to 1000 nM,O=c1c2sc3nccc(N4CCCC4)c3c2ncn1-c1ccc(Br)cc1 [28GT]
16,< 50 nM,O=c1c2sc3nccc(NCCCCO)c3c2ncn1-c1ccc(F)cc1 [28GU]
17,< 50 nM,O=c1c2sc3nccc(NCCCCO)c3c2ncn1-c1ccc(Br)cc1 [28GV]
18,150 to 1000 nM,O=c1c2sc3nccc(N4CCCC4)c3c2ncn1-c1ccc(F)cc1 [28GW]
19,150 to 1000 nM,CC(C)Nc1ccnc2sc3c(=O)n(-c4ccc(F)cc4)cnc3c12 [28GX]
20,< 50 nM,O=c1c2sc3nccc(NC4CC4)c3c2ncn1-c1ccc(Br)cc1 [28GY]
21,> 1000 nM,COC[C@H](C)Nc1ccnc2sc3c(=O)n(-c4ccc(Br)cc4)cnc3c12 [28GZ]
22,150 to 1000 nM,COCC(C)Nc1ccnc2sc3c(=O)n(-c4ccc(Br)cc4)cnc3c12 (stereo not drawn) [28HA]
23,< 50 nM,C[C@@H](O)CNc1ccnc2sc3c(=O)n(-c4ccc(Br)cc4)cnc3c12 [28HB]
24,50 to 150 nM,CC(CO)Nc1ccnc2sc3c(=O)n(-c4ccc(Br)cc4)cnc3c12 (stereo not drawn) [28HC]

row,IC50,Structure (SMILES)
1,150 to 1000 nM,CC(C)Nc1ccnc2sc3c(=O)n(-c4ccc(Br)cc4)cnc3c12 [28HD]
2,< 50 nM,COc1ccc(-n2cnc3c(sc4nccc(NC5CC5)c43)c2=O)cc1F [28HE]
3,< 50 nM,O=c1c2sc3nccc(NC4CC4)c3c2ncn1-c1ccc(Cl)cc1 [28HF]
4,< 50 nM,CN(CCO)c1ccnc2sc3c(=O)n(-c4ccc(Cl)cc4)cnc3c12 [28HG]
5,50 to 150 nM,CN(CCO)c1ccnc2sc3c(=O)n(-c4ccc(F)cc4)cnc3c12 [28HH]
6,< 50 nM,CN(CCO)c1ccnc2sc3c(=O)n(-c4ccc(Br)cc4)cnc3c12 [28HI]
7,< 50 nM,COc1ccc(-n2cnc3c(sc4nccc(N(C)CCO)c43)c2=O)cc1 [28HJ]
8,< 50 nM,COc1ccc(-n2cnc3c(sc4nccc(NCCCO)c43)c2=O)cc1 [28HK]
9,< 50 nM,COCCCNc1ccnc2sc3c(=O)n(-c4ccc(OC)cc4)cnc3c12 [28HL]
10,< 50 nM,CC(O)CCNc1ccnc2sc3c(=O)n(-c4ccc(Cl)cc4)cnc3c12 (stereo not drawn) [28HM]
11,< 50 nM,CC(O)CCNc1ccnc2sc3c(=O)n(-c4ccc(F)cc4)cnc3c12 (stereo not drawn) [28HN]
12,< 50 nM,CC(O)CCNc1ccnc2sc3c(=O)n(-c4ccc(Br)cc4)cnc3c12 (stereo not drawn) [28HO]
13,< 50 nM,COc1ccc(-n2cnc3c(sc4nccc(NCCC(C)O)c43)c2=O)cc1 (stereo not drawn) [28HP]
14,50 to 150 nM,CN(CC(O)CO)c1ccnc2sc3c(=O)n(-c4ccc(Cl)cc4)cnc3c12 (stereo not drawn) [28HQ]
15,150 to 1000 nM,CN(CC(O)CO)c1ccnc2sc3c(=O)n(-c4ccc(F)cc4)cnc3c12 (stereo not drawn) [28HR]
16,< 50 nM,O=c1c2sc3nccc(NC4CC4)c3c2ncn1-c1ccc(O)cc1 [28HS]
17,> 1000 nM,O=c1c2sc3nccc(NC4CC4)c3c2ncn1-c1ccc(OS(=O)(=O)C(F)(F)F)cc1 [28HT]
18,< 50 nM,CN(CC(O)CO)c1ccnc2sc3c(=O)n(-c4ccc(Br)cc4)cnc3c12 (stereo not drawn) [28HU]
19,< 50 nM,COc1ccc(-n2cnc3c(sc4nccc(N(C)CC(O)CO)c43)c2=O)cc1 (stereo not drawn) [28HV]
20,< 50 nM,COCCCNc1ccnc2sc3c(=O)n(-c4ccc(O)cc4)cnc3c12 [28HW]
21,150 to 1000 nM,COCCCNc1ccnc2sc3c(=O)n(-c4ccc(OS(=O)(=O)C(F)(F)F)cc4)cnc3c12 [28HX]

# Same assay, conditions: against Quisqualate 1 μM (EC80), FLIPR calcium mobilization, read-out: mGluR1 IC50
row,IC50,Structure (SMILES)
1,0.77 nM,O=c1c2sc3nccc(NCCCO)c3c2ncn1-c1ccc(Cl)cc1 [28GD]
2,0.28 nM,O=c1c2sc3nccc(NCCCCO)c3c2ncn1-c1ccc(Cl)cc1 [28GE]
3,0.66 nM,O=c1c2sc3nccc(NCCCO)c3c2ncn1-c1ccc(Br)cc1 [28GQ]

# Same assay, conditions: against Quisqualate 1 μM (EC80), class symbols, read-out: mGIuR 1 IC50
row,IC50,Structure (SMILES)
1,> 1000 nM,COc1ccc(-n2cnc3c(sc4nccc(NC5CCCCC5)c43)c2=O)cc1 [28E]
2,> 1000 nM,O=c1c2sc3nccc(NC4CCCCC4)c3c2ncn1-c1ccc(OC(F)(F)F)cc1 [28F]
3,150 to 1000 nM,COc1ccc(-n2cnc3c(sc4nccc(Nc5ccccc5)c43)c2=O)cc1 [28G]
